Assay [1] concerns Oral squamous carcinoma cells (OSCCs) and Oral squamous stem cell carcinoma (OSCSCs). Nature of the assay: NAC blocking of CDDP mediated cell death (PI staining, flow cytometry). Format: cell-based, human. The note with it: OSCC compared with OSCSCs, 24 hours. The protocol:
Testing and selection of the best NAC to be used in ALS treatment. […] Afterwards OSCCs and OSCSCs were detached, and the viability of cells was determined after PI staining followed by flow cytometric analysis. In this figure Forward and Side Scatters (Fs/ss) were assessed since decrease in the Fs/ss is seen in cells undergoing cell death.
Testing and selection of the best NAC to be used in ALS treatment. […] Afterwards OSCCs and OSCSCs were detached, and the viability of cells was determined after PI staining followed by flow cytometric analysis. In this figure the percentage of PI stained cells were assessed.

A further assay concerns OSCSCs. Nature of the assay: NAC blocking of H2O2 mediated cell death in OSCSCs. Format: cell-based, human. Particulars: NAC 20 mM, 24 hours, FIG. 68.
The test system of assay [2] is Dental Pulp Stromal Cells (DPSCs). Nature of the assay: NAC blocking of H2O2 mediated cell death in DPSCs. Particulars: NAC 20 mM, 24 hours, FIG. 67. Format: cell-based, human. Here is the method:
Testing and selection of the best NAC to be used in ALS treatment. […] Afterwards DPSCs were detached, and the viability of cells was determined after PI staining followed by flow cytometric analysis. In this figure the decrease in FS/ss and the percentage of PI stained cells were assessed.

The subject of the next assay is ALS. Particulars: cited from earlier work.

Consider `[NH2][Pt]([NH2])([Cl])[Cl]` [CDDP, Cisplatin], for which the “cell death induced by CDDP” value in assay [1] is recorded as “induces more of the cell death in OSCC than in OSCSCs”. For the compound `CC(=O)N[C@@H](CS)C(=O)O` [NAC-M], the “H2O2 mediated cell death (Fs/ss and PI positive cells)” value (in the assay on OSCSCs; in assay [2]) was “able to inhibit H2O2 mediated cell death effectively” throughout. For `Nc1nc2ccc(OC(F)(F)F)cc2s1` [Riluzole], in the assay on ALS, the extension of life entry is on record as “about two to three”.

The values are drawn from patent US20240245770A1, “COMPOSITIONS AND METHODS FOR TREATING NEUROMUSCULAR DISORDERS” (The Regents of the University of California, priority 2019, published 2024).
